Data from patent EP0769958B1, “INHIBITORS OF LEUKOCYTE ADHESION” (ATHENA NEUROSCIENCES, INC., priority 1994, dated 1996).
“Also recorded” adds a separate entry of the source. Bridge positions count the residues as written; N and C are the ends. Ends that are not written are not given here. Peptide text beside a SMILES is read from it.

How the values were obtained:
VLA-4 = molecular target: T1, VLA-4 (Homo sapiens, UniProt P05556+P13612); assay: Jurkat interaction with soluble VCAM-1 (sVCAM-1-IgG), FACS assay of Example 6; format: cell-based; settings: for inhibition of interaction of sVCAM-1-IgG with Jurkat cells: Mn+2 and 15/7 present
T1 construct: endogenous in cells; host or cells: Jurkat cells
From the text: VCAM-1 was expressed as a soluble fusion protein. The construct expressed the seven extracellular domains of VCAM-1 on the N-terminus, and the human IgG1 heavy chain constant region on the C-terminus. Interaction of the soluble construct with Jurkat cells was monitored by standard FACS analysis, using a fluorescently labeled antibody directed against the construct's human IgG tail as a marker.
The activity of VLA-4 can be regulated. 15/7 is a monoclonal antibody that recognizes an activated conformation of VLA-4 and locks the molecule in the active state, thereby enhancing VLA-4-mediated cell adhesion.
Peptides of different length, and with various amino acid substitutions were synthesized based on the sequence of the CDR3 region of the antibody 21/6 (EGYYGNYGVYA) (SEQ ID No. 4). The peptides were then tested for their ability to inhibit Jurkat interaction with sVCAM-1-IgG in the FACS assay described in Example 6. IC50 values were determined for each peptide using this assay.

VLA-4 integrin = molecular target: T2, VLA-4 integrin (Homo sapiens, UniProt P05556+P13612); assay: Adhesion of Jurkat cells to peptide-BSA conjugates coated onto plastic; format: cell-based; settings: peptide conjugated to carrier protein, exposed to the plastic at 3 µg/mL; Figure 1
T2 construct: endogenous in cells; host or cells: Jurkat cells
Experimental: The peptide used in this example was synthesized based on the sequence of the anti-α4 integrin antibody 21/6 (CGGEGYYGNYGVYA, SEQ ID No. 1). In this example the peptide was conjugated to a large carrier protein via the linker region that was synthesized as part of the peptide itself (in italics). The conjugated peptide was then coated onto plastic, and the ability of the conjugate to support cell adhesion was tested. This method is based on a report by Wayner and Kovach^40.
As a positive control, the fibronectin peptide described by Wayner was synthesized, conjugated to carrier protein, and tested for cell adhesion in parallel with SEQ ID NO. 1 (CGGEILDVPST, SEQ ID No. 2). Both peptide conjugates were exposed to the plastic at a concentration of 3 µg/mL. […] Adhesion was not affected by an antibody against β2 integrin (IOT18), a distinct cell adhesion molecule that is also expressed on the surface of Jurkat cells. Thus, like peptide SEQ ID NO. 2, peptide SEQ ID NO. 1 interacts with Jurkat in an α4 integrin-specific fashion.

T1 sequence (P13612 34-1032): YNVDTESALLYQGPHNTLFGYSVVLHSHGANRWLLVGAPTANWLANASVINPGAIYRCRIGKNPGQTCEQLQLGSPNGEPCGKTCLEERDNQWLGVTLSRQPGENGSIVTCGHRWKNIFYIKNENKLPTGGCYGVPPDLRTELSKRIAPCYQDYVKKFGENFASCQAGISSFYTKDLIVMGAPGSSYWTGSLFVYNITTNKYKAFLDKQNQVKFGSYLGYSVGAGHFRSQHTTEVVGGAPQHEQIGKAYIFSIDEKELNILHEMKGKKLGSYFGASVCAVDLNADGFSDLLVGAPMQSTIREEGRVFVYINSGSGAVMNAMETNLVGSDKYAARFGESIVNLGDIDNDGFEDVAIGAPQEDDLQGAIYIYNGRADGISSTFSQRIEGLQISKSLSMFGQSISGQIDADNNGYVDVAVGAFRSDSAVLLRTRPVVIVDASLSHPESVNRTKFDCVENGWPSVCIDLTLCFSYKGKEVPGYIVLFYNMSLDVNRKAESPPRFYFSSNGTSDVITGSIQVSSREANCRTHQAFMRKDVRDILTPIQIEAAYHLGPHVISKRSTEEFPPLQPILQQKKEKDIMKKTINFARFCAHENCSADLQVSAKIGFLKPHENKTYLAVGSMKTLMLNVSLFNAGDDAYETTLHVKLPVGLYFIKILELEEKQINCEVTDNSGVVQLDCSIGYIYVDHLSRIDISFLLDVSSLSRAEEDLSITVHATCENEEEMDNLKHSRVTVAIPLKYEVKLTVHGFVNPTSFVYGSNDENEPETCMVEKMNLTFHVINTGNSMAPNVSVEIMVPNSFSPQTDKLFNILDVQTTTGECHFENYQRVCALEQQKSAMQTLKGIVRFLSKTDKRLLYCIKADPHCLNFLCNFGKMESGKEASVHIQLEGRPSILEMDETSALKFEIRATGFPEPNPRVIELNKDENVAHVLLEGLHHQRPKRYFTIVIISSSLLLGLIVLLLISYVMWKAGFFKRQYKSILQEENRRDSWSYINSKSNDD
T1 sequence (P05556 21-798): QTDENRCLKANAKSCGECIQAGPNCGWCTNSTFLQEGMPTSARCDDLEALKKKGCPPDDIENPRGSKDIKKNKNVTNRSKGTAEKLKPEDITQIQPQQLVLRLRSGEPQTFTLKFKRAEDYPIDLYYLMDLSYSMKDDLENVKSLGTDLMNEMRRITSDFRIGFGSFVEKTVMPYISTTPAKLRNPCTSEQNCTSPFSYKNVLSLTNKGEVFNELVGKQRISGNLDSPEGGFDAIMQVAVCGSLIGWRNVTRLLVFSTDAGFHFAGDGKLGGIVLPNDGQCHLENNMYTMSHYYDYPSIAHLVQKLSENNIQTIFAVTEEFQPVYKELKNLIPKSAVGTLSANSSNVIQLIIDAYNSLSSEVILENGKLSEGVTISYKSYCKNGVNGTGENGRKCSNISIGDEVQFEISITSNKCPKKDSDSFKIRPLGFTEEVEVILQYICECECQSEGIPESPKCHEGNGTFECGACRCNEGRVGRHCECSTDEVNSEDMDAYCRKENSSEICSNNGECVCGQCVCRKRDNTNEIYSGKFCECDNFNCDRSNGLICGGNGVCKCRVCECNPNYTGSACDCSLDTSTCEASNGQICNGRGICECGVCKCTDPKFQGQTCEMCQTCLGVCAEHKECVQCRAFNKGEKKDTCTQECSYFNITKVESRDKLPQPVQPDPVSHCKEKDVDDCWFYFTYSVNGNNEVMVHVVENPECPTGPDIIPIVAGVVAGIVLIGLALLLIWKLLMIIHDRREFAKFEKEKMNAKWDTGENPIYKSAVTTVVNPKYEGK
T2 sequence (P13612 34-1032): as the sequence (P13612 34-1032) above
T2 sequence (P05556 21-798): as the sequence (P05556 21-798) above

Compound	adhesion of Jurkat cells to immobilized peptide conjugate (VLA-4 integrin)	inhibition of interaction of sVCAM-1-IgG with Jurkat cells (VLA-4; result in words)	other results
NC(=O)C[C@@H]1NC(=O)CNC(=O)[C@H](Cc2ccccc2)NC(=O)CNC(=O)[C@@H](N)CSSC[C@@H](C(=O)O)NC(=O)[C@H](Cc2ccc(O)cc2)NC(=O)[C@H](CO)NC(=O)[C@H](Cc2c[nH]cn2)NC(=O)[C@H](CCC(=O)O)NC1=O [SEQ ID No. 31] (H-CGFGNEHSYC-OH; disulfide 1-10)		particularly good inhibition	
CC[C@H](C)[C@@H]1NC(=O)[C@H](CCC(N)=O)NC(=O)[C@H]([C@@H](C)O)NC(=O)[C@H](CCCNC(=N)N)NC(=O)[C@@H](N)CSSC[C@@H](C(=O)O)NC(=O)[C@H](CO)NC(=O)[C@H](CC(=O)O)NC1=O [SEQ ID No. 35] (H-CRTQIDSC-OH; disulfide 1-8)			inhibitory activity compared with parent or linear peptide (VLA-4; result in words, relative to SEQ ID No. 4 (Nos. 27, 17) or SEQ ID No. 34 (No. 35)): more active than the linear peptide
NC(=O)C[C@@H]1NC(=O)CNC(=O)[C@H](Cc2ccccc2)NC(=O)[C@H](Cc2ccc(O)cc2)NC(=O)[C@@H](N)CSSC[C@@H](C(=O)O)NC(=O)[C@H](Cc2ccc(O)cc2)NC(=O)[C@H](CO)NC(=O)[C@H](Cc2c[nH]cn2)NC(=O)[C@H](CCC(=O)O)NC1=O [SEQ ID No. 63] (H-CYFGNEHSYC-OH; disulfide 1-10)			IC50 (VLA-4; per Example 6: inhibition of Jurkat interaction with sVCAM-1-IgG, FACS, in the presence of Mn+2 and 15/7): ≤ 50 µM
CGGEGYYGNYGVYA [SEQ ID No. 1]	bound equally well		
CGGEILDVPST [SEQ ID No. 2, fibronectin peptide described by Wayner, conjugated to carrier protein; positive control, reference compound]	bound equally well		
STLTMNPVSF [SEQ ID No. 40]		inhibitory; also recorded: quite active in a linear form	
